Reference: the NIST ThermoML archive (doi:10.1021/acs.jced.8b00213)

Legend:
[1] = xn = mol fraction of the nth substance listed; conditions: 100 kPa, Liquid, x1 = 0.25; for electrical conductivity: Alternating current cell with electrodes; for viscosity: Falling or rolling sphere viscometry; for speed of sound: Single path-length method; for mass density: Vibrating tube method
[2] = refractive index (Na D-line) (dimensionless); xn = mol fraction of the nth substance listed; conditions: 100 kPa, Liquid, Standard Abbe refractometry, x1 = 0.25

C[N+](C)(C)Cc1ccccc1.[Cl-] [trimethylbenzylammonium chloride] + OCCO
Conditions | electrical conductivity, [1] [S/m] | mass density, [1] [kg/m3] | refractive index, [2] | speed of sound, [1] [m/s] | viscosity, [1] [mPa·s]
283.15 K | 0.263 | 1110.06 | 1.4995 | 1856.7 | 101.9
288.15 K | 0.32 | 1107 | 1.498 | 1843.6 | 76.1
293.15 K | 0.391 | 1103.95 | 1.4966 | 1830.8 | 58.2
298.15 K | 0.461 | 1100.92 | 1.4951 | 1818 | 45.3
303.15 K | 0.552 | 1097.89 | 1.4935 | 1805.3 | 35.9
308.15 K | 0.643 | 1094.87 | 1.4921 | 1792.7 | 29
313.15 K | 0.75 | 1091.85 | 1.4907 | 1780.2 | 23.9
318.15 K | 0.872 | 1088.84 | 1.4893 | 1767.8 | 19.9
323.15 K | 0.997 | 1085.83 | 1.4878 | 1755.4 | 16.8
328.15 K | 1.12 | 1082.83 | 1.4864 | 1743 | 14.3
333.15 K | 1.25 | 1079.82 | 1.4849 | 1730.7 | 12.3
338.15 K | 1.41 | 1076.82 | 1.4835 | 1718.5 | 10.7
343.15 K | 1.56 | 1073.83 | 1.482 | 1706.6 | 9.5

CCCC[N+](CCCC)(CCCC)Cc1ccccc1.[Cl-] [benzyltributylammonium chloride] + OCCO
Conditions | electrical conductivity, [1] [S/m] | mass density, [1] [kg/m3] | refractive index, [2] | speed of sound, [1] [m/s] | viscosity, [1] [mPa·s]
283.15 K | 0.03 | 1045.37 | 1.4993 | 1734.9 | 901.4
288.15 K | 0.039 | 1042.15 | 1.4979 | 1716.3 | 598.4
293.15 K | 0.048 | 1039 | 1.4963 | 1698.9 | 415.2
298.15 K | 0.064 | 1035.88 | 1.4947 | 1682.2 | 286
303.15 K | 0.081 | 1032.74 | 1.4932 | 1666.2 | 211
308.15 K | 0.099 | 1029.6 | 1.4917 | 1650.5 | 155.5
313.15 K | 0.122 | 1026.44 | 1.4901 | 1635.2 | 117.1
318.15 K | 0.148 | 1023.29 | 1.4886 | 1620.1 | 89.9
323.15 K | 0.181 | 1020.13 | 1.4871 | 1605.2 | 70.7
328.15 K | 0.219 | 1016.97 | 1.4855 | 1590.5 | 55.8
333.15 K | 0.262 | 1013.82 | 1.484 | 1576 | 43.6
338.15 K | 0.315 | 1010.67 | 1.4825 | 1561.7 | 34.9
343.15 K | 0.365 | 1007.53 | 1.4809 | 1547.9 | 28.1

CCCC[N+](CCCC)(CCCC)Cc1ccccc1.[Cl-] [benzyltributylammonium chloride] + OCC(O)CO
Conditions | electrical conductivity, [1] [S/m] | mass density, [1] [kg/m3] | refractive index, [2] | speed of sound, [1] [m/s] | viscosity, [1] [mPa·s]
283.15 K | 0.003 | 1112.02 | 1.5095 | 1908 | –
288.15 K | 0.005 | 1108.9 | 1.5079 | 1866.4 | –
293.15 K | 0.007 | 1105.78 | 1.5065 | 1833 | –
298.15 K | 0.009 | 1102.66 | 1.5051 | 1805.3 | 2328.1
303.15 K | 0.013 | 1099.54 | 1.5036 | 1782 | 1709.2
308.15 K | 0.019 | 1096.41 | 1.5021 | 1761.7 | 1112.1
313.15 K | 0.025 | 1093.28 | 1.5006 | 1743.5 | 740.9
318.15 K | 0.038 | 1090.07 | 1.4992 | 1726.8 | 497.7
323.15 K | 0.047 | 1086.95 | 1.4977 | 1711.2 | 346.1
328.15 K | 0.065 | 1083.85 | 1.4962 | 1696 | 254.6
333.15 K | 0.086 | 1080.72 | 1.4948 | 1681.5 | 185.3
338.15 K | 0.109 | 1077.58 | 1.4933 | 1667.3 | 138.1
343.15 K | 0.138 | 1074.43 | 1.4917 | 1653.9 | 105

CCCC[N+](CCCC)(CCCC)Cc1ccccc1.[Cl-] [benzyltributylammonium chloride] + OCCOCCOCCO
Conditions | electrical conductivity, [1] [S/m] | mass density, [1] [kg/m3] | refractive index, [2] | speed of sound, [1] [m/s] | viscosity, [1] [mPa·s]
283.15 K | 0.013 | 1077.97 | 1.4936 | 1710.1 | 738.7
288.15 K | 0.017 | 1074.64 | 1.4921 | 1692.4 | 506
293.15 K | 0.021 | 1071.36 | 1.4906 | 1675.8 | 356.9
298.15 K | 0.027 | 1068.09 | 1.4889 | 1659.8 | 256.5
303.15 K | 0.035 | 1064.81 | 1.4874 | 1644.2 | 188.5
308.15 K | 0.043 | 1061.53 | 1.4857 | 1629.2 | 142.4
313.15 K | 0.054 | 1058.25 | 1.4842 | 1614.3 | 109.1
318.15 K | 0.067 | 1054.97 | 1.4827 | 1599.8 | 85.2
323.15 K | 0.082 | 1051.7 | 1.4811 | 1585.4 | 67.7
328.15 K | 0.098 | 1048.43 | 1.4795 | 1571.2 | 54.4
333.15 K | 0.114 | 1045.18 | 1.4779 | 1557.1 | 43.3
338.15 K | 0.145 | 1041.92 | 1.4764 | 1543.3 | 34.9
343.15 K | 0.174 | 1038.69 | 1.4748 | 1530 | 28.3

C[N+](C)(C)Cc1ccccc1.[Cl-] [trimethylbenzylammonium chloride] + OCCOCCO
Conditions | electrical conductivity, [1] [S/m] | mass density, [1] [kg/m3] | refractive index, [2] | speed of sound, [1] [m/s] | viscosity, [1] [mPa·s]
283.15 K | 0.088 | 1120.06 | 1.4954 | 1782.6 | 263.4
288.15 K | 0.109 | 1116.91 | 1.494 | 1769 | 185.4
293.15 K | 0.132 | 1113.75 | 1.4925 | 1755.8 | 134.1
298.15 K | 0.165 | 1110.6 | 1.4911 | 1742.9 | 98.6
303.15 K | 0.201 | 1107.46 | 1.4897 | 1730.2 | 74.8
308.15 K | 0.254 | 1104.33 | 1.4884 | 1717.7 | 57.9
313.15 K | 0.311 | 1101.21 | 1.4869 | 1705.3 | 44.4
318.15 K | 0.356 | 1098.09 | 1.4855 | 1693 | 34.8
323.15 K | 0.398 | 1094.99 | 1.4841 | 1680.8 | 27.8
328.15 K | 0.474 | 1091.89 | 1.4826 | 1668.7 | 23.2
333.15 K | 0.539 | 1088.79 | 1.4813 | 1656.6 | 18.7
338.15 K | 0.611 | 1085.7 | 1.4798 | 1644.7 | 16
343.15 K | 0.681 | 1082.63 | 1.4784 | 1633.1 | 14.2

C[N+](C)(C)Cc1ccccc1.[Cl-] [trimethylbenzylammonium chloride] + OCC(O)CO
Conditions | electrical conductivity, [1] [S/m] | mass density, [1] [kg/m3] | refractive index, [2] | speed of sound, [1] [m/s] | viscosity, [1] [mPa·s]
283.15 K | 0.012 | 1190.87 | 1.5126 | 1992.6 | –
288.15 K | 0.019 | 1187.92 | 1.5114 | 1970.8 | 1874.9
293.15 K | 0.027 | 1184.97 | 1.5102 | 1953 | 1170.9
298.15 K | 0.039 | 1182.02 | 1.5089 | 1937.6 | 753.5
303.15 K | 0.055 | 1178.99 | 1.5078 | 1923.4 | 501.5
308.15 K | 0.077 | 1176.07 | 1.5064 | 1910.1 | 342.7
313.15 K | 0.104 | 1173.14 | 1.5052 | 1897.2 | 238.3
318.15 K | 0.138 | 1170.19 | 1.5039 | 1884.6 | 171.8
323.15 K | 0.181 | 1167.23 | 1.5027 | 1872.3 | 126.7
328.15 K | 0.231 | 1164.25 | 1.5014 | 1860 | 95.4
333.15 K | 0.283 | 1161.27 | 1.5002 | 1847.9 | 73
338.15 K | 0.34 | 1158.29 | 1.4989 | 1835.8 | 58.2
343.15 K | 0.413 | 1155.33 | 1.4977 | 1824.2 | 46.3

C[N+](C)(C)Cc1ccccc1.[Cl-] [trimethylbenzylammonium chloride] + OCCOCCOCCO
Conditions | electrical conductivity, [1] [S/m] | mass density, [1] [kg/m3] | refractive index, [2] | speed of sound, [1] [m/s] | viscosity, [1] [mPa·s]
283.15 K | 0.048 | 1127.45 | 1.4923 | 1776.2 | 620.1
288.15 K | 0.063 | 1124.08 | 1.4908 | 1761 | 470.8
293.15 K | 0.081 | 1120.7 | 1.4894 | 1746.2 | 370.5
298.15 K | 0.101 | 1117.31 | 1.488 | 1731.4 | 308.8
303.15 K | 0.124 | 1113.93 | 1.4865 | 1716.9 | 214.3
308.15 K | 0.152 | 1110.57 | 1.4849 | 1702.8 | 155.7
313.15 K | 0.187 | 1107.21 | 1.4836 | 1688.5 | 115.6
318.15 K | 0.226 | 1103.87 | 1.4821 | 1674.6 | 87.8
323.15 K | 0.278 | 1100.54 | 1.4807 | 1660.8 | 68.5
328.15 K | 0.325 | 1097.22 | 1.4792 | 1647.2 | 54.9
333.15 K | 0.377 | 1093.9 | 1.4778 | 1633.6 | 43.5
338.15 K | 0.44 | 1090.59 | 1.4763 | 1620.1 | 34.3
343.15 K | 0.506 | 1087.29 | 1.4749 | 1606.6 | 27.4
